Measurements published in patent US11339124B2, “3-(benzylamino)-4-(cyclohexylamino)-n-(2-(piperazin-1-yl)ethyl)benzenesulfonamide derivatives and related ferrostatin-1 analogues as cell death inhibitors for treating e.g. stroke” (VIB VZW, priority 2018, dated 2022).

Experiments:
[1] = Microsomal (metabolic) stability, mouse liver microsomes; conditions: liver microsomes, pH 7.4
Excerpt: (§1) By using the measured microsomal in vitro t1/2, a calculated value for the intrinsic clearance Clint can be determined. This value states the measure in which a drug that is not bound to plasma proteins is irreversibly removed from the body by the liver. This value is expressed in mL/min/kg which can be interpreted as the volume of blood in mL that is cleared of a drug per minute per kilogram of body weight. The CLint is less sensitive to used variables in ADME assays since the amount of microsomal protein and the volume of the incubation are all taken into account. (Sohlenius-Sternbeck et al., Xenobiotica, 2012, 42, 841-853)
(§2) Liver microsomes (20 mg protein/ml), NADPH regenerating system solutions A & B and 5 mM stock compound solution (100% DMSO) are prepared. The reaction mixture finally contains 713 μL purified water, 200 μL 0.5 M potassium phosphate pH 7.4, 50 μL NADPH regenerating system solution A (BD Biosciences Cat. No. 451220), 10 μL NADPH regenerating system solution B (BD Biosciences Cat. No. 451200) and 2 μL of the compound stock solution (10 μM final concentration). The reaction mixture is warmed to 37° C. for 5 minutes in a water bath and the reaction is initiated by addition of 25 μL of liver microsomes (0.5 mg protein/ml final concentration). At different time points (0 min-15 min-30 min-60 min-120 min-240 min-360 min-24 h), 20 μL is withdrawn and 80 μL cold acetonitrile is added on ice for 10 minutes. Then the mixtures are centrifuged at 13 000 rpm for 5 min at 4° C. The supernatant is further diluted in 90% water/MeCN (1/25) to fall within the range of the LC/MS/MS analysis. At each time point, the compound is analysed using LC/MS/MS with the same UPLC system as described above. A standard curve of six points was made to fit the measured concentrations. Verapamil was used as a positive control.
(§3) All obtained readouts were processed using Microsoft Excel. In order to determine the microsomal half-life t1/2 of the compounds, the rate constant k was determined by plotting the exponential decay graphs using GraFit. Microsomal t1/2 was determined using the following formula: […]

[2] = Plasma stability, human plasma; assay type: in vitro ADME; conditions: 37° C., remaining parent compound, read-out: Plasma stability (% recovery after 6 h), Human
Procedure: (§4) 5 μl of a 10 mM stock solution of the compound in DMSO was added to 995 μl of plasma to obtain a 50 μM final solution. The mixture was gently shaken for 6 h at 37° C. Aliquots of 100 μl were taken at various time points (0, 0.5 h, 1 h, 2 h, 3 h and 6 h) and diluted with 400 μl of cold methanol (stored at 4° C.). The suspension was centrifuged at 14000 rpm for 5 min. 50 μl of the supernatant was diluted with 950 μl of methanol and analysed with LC/MS/MS. The samples were analysed in triplicate. The experiment was done in duplicate. […] Enalapril maleate was used as a control in mice, rats, and in human.

[3] = Microsomal (metabolic) stability, rat liver microsomes; conditions: rat, liver microsomes
Excerpt: as §1, §2, §3

[4] = Kinetic solubility (turbidimetric method); assay type: physicochemical; conditions: 10 mM PBS pH 7.4, 2% DMSO, test range 3.125-200 μM, 2 h at 37° C.
Procedure: A turbidimetric method was used. First a series of DMSO compound stock solutions was prepared ([…]). An aliquot of 4 μL stock solution was added to 196 μL PBS buffer (pH 7.4). A series of concentrations were prepared (3.13-200 μM), including a blank on a microtiter plate. (2% DMSO-D6) The microtiter plate was shaken for 10 seconds and incubated for 2 hours at 37° C. When there was no turbidity measured at a given concentration the sample was assumed to be dissolved.

[5] = Plasma stability, rat plasma; assay type: in vitro ADME; conditions: 37° C., remaining parent compound, read-out: Plasma stability (% recovery after 6 h), Rat
Procedure: as §4

[6] = test system: IMR-32 Neuroblastoma cells; assay: Erastin-induced ferroptosis in IMR-32 neuroblastoma cells (Sytox Green cell death readout); assay type: cell-based; conditions: Homo sapiens; IMR-32 cells, 10 μM erastin, compounds 1 nM to 1 μM, triplicate; read-out: IC50, antiferroptotic activity in response to erastin-induced ferroptosis
Procedure: In the present invention the potency of a compound inhibiting (or reducing) ferroptosis and/or oxytosis are determined in in vitro or in vivo assays. Typically in vitro assays are used to measure the potency of a candidate compound. Examples of suitable in vitro assays are cellular assays. One non-limiting example of an assay involves the use of the IMR-32 neuroblastoma cell line. The latter is stimulated to enter into ferroptosis upon stimulation with 10 μM erastin, a documented ferroptosis inducer (see for example Dixon et al (2012) Cell 149, 1060-1072 and ferroptosis inhibitors are evaluated for the prevention of erastin induced ferroptosis. Yet another assay is based the glutamate-induced cell death in the hippocampal cell line HT22 and ferroptosis/oxytosis inhibitors are evaluated for the prevention of cell death (see Henke N. et al (2013) Cell Death and Disease 4, e470). Still another assay is based on the sorafinib induced cell death (described to be iron dependent cell death) in hepatocellular carcinoma cells and ferroptosis inhibitors are evaluated for the prevention of cell death (see Louandre C. et al (2013) Int. J. Cancer 133, 1732). The calculated potency of a compound inhibiting ferroptosis and/or oxytosis is typically depicted as an IC50 value. Examples of suitable in vivo assays are typically pre-clinical disease models of for example mice for the diseases benefiting the application of ferroptosis and/or oxytosis inhibitors, as described herein. One non-limiting example of an in vivo assay is based on inducing liver damage in mice by administering the herbicide diquat dibromide monohydrate and ferroptosis inhibitors are evaluated based on reduced levels of liver transaminases in serum (see Ran Q et al (2004) J. Biol. Chem. 279, 53, 55137).
The IC50 values for the individual compounds of the invention were determined in the neuroblastoma, IMR-32 cell line. In brief, IMR-32 cells were subjected to 10 μM erastin, the latter compound is known to induce ferroptosis. A concentration gradient (ranging from 1 nM to 1 μM) of the compounds was applied to the cells. These experiments were performed in a 96-well format (in triplicate), and cell death was analyzed in a fluorescent plate reader by use of a fluorescent cell death dye (1.5 μM Sytox Green). The IC50 values depicted in Table 1 are the concentration values for the individual compounds which are able to overcome ferroptosis.

[7] = Microsomal (metabolic) stability, human liver microsomes; conditions: human, liver microsomes
Excerpt: as §1, §2, §3

[8] = Plasma stability, mouse plasma; assay type: in vitro ADME; conditions: 37° C., remaining parent compound, read-out: Plasma stability (% recovery after 6 h), Mouse
Procedure: as §4

O=S(=O)(NCCN1CCOCC1)c1ccc(NC2CCCCC2)c(NCc2ccccc2)c1 [Compound 35, 3-(benzylamino)-4-(cyclohexylamino)-N-(2-morpholinoethyl)benzenesulfonamide]
CLint scaled at 10 µM [1]: 1220 ± 48 mL/min/kg | half-life at 10 µM [1]: 3.06 ± 0.12 min | recovery at 6 h, 50 μM [2]: 100% | CLint scaled at 10 µM ([3]; pH 7.4): 326 ± 13.2 mL/min/kg | half-life at 10 µM ([3]; pH 7.4, Microsomal stability (t1/2), rat liver microsomes, 0.5 mg protein/ml, 10 μM compound, 37° C.): 10.4 ± 0.42 min | Solubility (kinetic) [4]: 50 to 100 µM | recovery at 6 h, 50 μM [5]: 100% | IC50 [6]: 24 nM | CLint scaled at 10 µM ([7]; pH 7.4): 22.6 ± 8.1 mL/min/kg | half-life at 10 µM ([7]; pH 7.4, Microsomal stability (t1/2), human liver microsomes, 0.5 mg protein/ml, 10 μM compound, 37° C.): 58.8 ± 21 min | recovery at 6 h, 50 μM [8]: 100%
